Marks after values point to notes of the source that are not given here.
Experiments:
ATM-phosphorylated KAP1 = assay: Intracellular ATM-phosphorylated KAP1 level, ICW assay in MCF7 cells; assay type: cell-based, Human; conditions: Homo sapiens, light or radiation study; MCF7 cells, 2 h compound, 10 Gy irradiation, further 1 h; read-out: pKAP1 IC50
Procedure: 4 Inhibition on Intracellular ATM-Phosphorylated KAP1 Level by the Compounds of the Present Disclosure: ICW Assay
• Cell: Human breast cancer cell line MCF7 • Materials and reagents:
4.2 Experimental Procedures
• (1) Cell inoculation • MCF7 cells were inoculated on a 384-well plate, 10000 cells/well (25 μL/well), and cultured overnight at 37° C. with 5% CO2. • (2) Activity detection • 1) The compound was formulated into a 100 mM solution with DMSO and then sequentially diluted with a gradient of 1:3 to yield a total of 10 concentration gradients, wherein the maximum concentration was 100 μM. • 2) 25 nL of each of the compound solutions with gradient concentrations prepared in step 1) was added to each well of the cell plate (Corning #356663) by using I-DOT One, resulting in a final concentration of 100 nM (maximum dose). • 3) The cell plate containing compound was incubated at 37° C. with 5% CO2 for 2 h. After 2 h, the cell plate was irradiated with a dose of 10 Gy, and then further incubated for 1 h. • 4) 25 μL of 8% paraformaldehyde was added to each well, followed by incubating at room temperature for 20 min. • 5) The 8% paraformaldehyde was discarded, followed by adding 0.1% TrintonX-100 and incubating at room temperature for 30 min. • 6) Odessey blocking buffer was added at 50 μL/well, followed by incubating at room temperature for 1.5 h. • 7) The Odessey blocking buffer was discarded, and then a primary antibody (Phospho-KAP1, 1:2000 dilution) was added, followed by incubating overnight at 4° C. • 8) The primary antibody was removed, followed by washing with PBS+0.1% Tween 20 for 5 times. • 9) DNA dye DRAQ5 coated with a second antibody (IRDye 800CW Goat anti-Rabbit, 1:4000 dilution) was added, followed by incubating at room temperature for 1 h. • 10) The second antibody was removed, followed by washing with PBS+0.1% Tween 20 for 5 times. • 11) PBS+0.1% Tween 20 was sucked off with Odyssey. • (3) Data analysis • 1) the relative ratio of Channel 800/Channel 700 for each well was detected. • 2) % of KAP1 phosphorylation was calculated according to the following formula:
% of KAP1 phosphorylation=[(Ratiocmpd−(Ratio)Positive)/((Ratio)Vehicle−(Ratio)Positive]*100 • (Ratio)Positive: the mean value of the test values of each positive control well in the test cell plate; • (Ratio)Vehicle: the mean value of the test values of each negative control well in the test cell plate. • 3) the IC50 of each compound was calculated and the dose-effect curve was plotted: % of KAP1 phosphorylation and log of compound's concentration were fit by using Graphpad 8.0 so as to calculate the IC50.
[formula] • X: log of compound's concentration • Y: % of KAP1 phosphorylation

[1] = test system: subcutaneous xenograft tumor of human non-small cell lung cancer cell line NCI-H441; assay: NCI-H441 subcutaneous xenograft, combined with irinotecan liposome injection; assay type: in vivo, NU/NU mice; conditions: for D 17 TGI / D 17 TV (MEAN ± SD) / Tumor weight / Tumor weight inhibitory rate: compound 25 mg/kg intragastric + irinotecan liposome 2.5 mg/kg ip; for D 17 TGI / D 17 TV (MEAN ± SD): day 17; for Tumor weight / Tumor weight inhibitory rate: end of test d17
Procedure: 6 Efficacy Test of the Compounds of the Present Disclosure Combined with Irinotecan Liposome Injection on Inhibiting the Growth of Subcutaneous Xenograft Tumor of Human Non-Small Cell Lung Cancer Cell Line NCI-H441
6.1 Experimental Animals: NU/NU Mice, SPF, Female, 20 to 30 g.
Irinotecan liposome injection (HE072), 43 mg:10 mL, milky white liquid, batch No. B37191202, provided by Preparation Research Institute 2 from CSPC Zhongqi Pharmaceutical Technology (Shijiazhuang) Co., Ltd., diluted to an appropriate concentration with 5% glucose injection while testing.
NCI-H441 cells, provided by Nanjing Kebai Biotechnology Co., Ltd.; 1640 culture medium (gibco Company):fetal bovine serum (Lanzhou Bailing)=90%:10%, 37° C., 5% CO2.
NU/NU nude mice were subcutaneously inoculated with NCI-H441 human non-small cell lung cancer cells. When the mean tumor volume reached 170 to 172 mm^3 (15 days after inoculation), the animals were evenly divided into groups according to the tumor volume (d0), with 6 mice in each group. 2.5 mg/kg of HE072 was administered intraperitoneally once a week for 2 times. Vehicle control, 25 mg/kg of A-193, 25 mg/kg of A-182, and 25 mg/kg of AZD1390 were administered intragastrically once a day, from Monday to Thursday every week except Friday to Sunday, for 2 weeks (8 times). The tumor volume was measured twice a week, the body weight of mouse was weighed every day, and the data were recorded. The tumor volume (TV) was calculated according to the formula: TV=½×a×b2, wherein a and b represent the long and short diameters of tumor, respectively. Tumor growth inhibitory rate TGI (%)=[1−(Ti−T0)/(Vi−V0)]×100, wherein Ti represents the mean tumor volume of a given treatment group on a certain day; TO represents the mean tumor volume of this treatment group at the beginning of administration; Vi represents the mean tumor volume of the vehicle control group on a certain day (the same day as that in Ti); V0 represents the mean tumor volume of the vehicle control group at the beginning of administration. At the end of the test (d17), the animals were sacrificed, the tumors were stripped and weighed, and the tumor weight inhibitory rates were calculated.

| IC50 (ATM-phosphorylated KAP1) [nM] | SMILES | D 17 TGI [1] [%] | D 17 TV (MEAN ± SD) [1] | Tumor weight [1] [g] | Tumor weight inhibitory rate [1] [%] | inhibitory effect on tumor volume and tumor weight, in words ([1]; combined with irinotecan liposome injection, compared with AZD1390) |
| --- | --- | --- | --- | --- | --- | --- |
| 0.45 | CC(C)n1c(=O)n(C)c2cnc3cc(F)c(-c4ccc(OCCCN5CCCCC5)nc4)cc3c21 [AZD1390, reference compound] | 60.3 | 342.8 ± 110.6*** mm^3 | 0.32 ± 0.09 | 45.3 |  |
| 1.75 | Cn1c(=O)n2c3c4c(c(-c5ccc(OCCCN6CCCCC6)nc5)c(F)cc4ncc31)NCC2(C)C [Example A-193, 6-fluoro-2,10,10-trimethyl-7-(6-(3-(piperidin-1-yl)propoxy)pyridin-3-yl)-2,8,9,10-tetrahydro-1H-2,4,8,10a-tetraazanaphtho[2,1,8-cde]azulen-1(2H)-one] | 87.5 | 225.9 ± 69.4***^### mm^3 | 0.24 ± 0.06 | 60.2 | higher than those of AZD1390 |

Reference: patent US20240294545A1 (CSPC Zhongqi Pharmaceutical Technology (Shijiazhuang) Co., …, priority 2020, published 2024)
